Measured values: the supplement of paper PMC10307832

Columns and labels:
Test in all cases: relative viability (nuclei count vs DMSO), 5 days (fraction); higher = more cells survive
Zosuquidar + Pemetrexed = compound: O[C@@H](COc1cccc2ncccc12)CN1CCN([C@@H]2c3ccccc3[C@@H]3[C@H](c4ccccc42)C3(F)F)CC1 [Zosuquidar] + Nc1nc2[nH]cc(CCc3ccc(C(=O)N[C@@H](CCC(=O)O)C(=O)O)cc3)c2c(=O)[nH]1 [Pemetrexed] (partner 0.2 µM)
In short: (§1)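 Relative viability divides the nuclei count in treated wells by that in vehicle wells. Lung cancer cell lines were seeded in 1536-well plates, dosed by pin tool the next day, and fixed and stained after 5 days in one step with final 0.05% Triton X-100, 1% formaldehyde and 1 ug/ml Hoechst. Dosing was a single drug or a fixed anchor-drug dose plus five library-drug doses (not always all listed) in √10 steps, and values are medians of duplicate plates imaged at 4×.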

Zosuquidar + Luminespib = compound: O[C@@H](COc1cccc2ncccc12)CN1CCN([C@@H]2c3ccccc3[C@@H]3[C@H](c4ccccc42)C3(F)F)CC1 [Zosuquidar] + CCNC(=O)c1noc(-c2cc(C(C)C)c(O)cc2O)c1-c1ccc(CN2CCOCC2)cc1 [Luminespib] (partner 0.01 µM)
In short: as §1

Kobe2602 + Crizotinib = compound: C1=CC(=CC=C1NC(=S)NNC2=C(C=C(C=C2[N+](=O)[O-])C(F)(F)F)[N+](=O)[O-])F [Kobe2602] + C[C@@H](Oc1cc(-c2cnn(C3CCNCC3)c2)cnc1N)c1c(Cl)ccc(F)c1Cl [Crizotinib] (partner 1 µM)
In short: as §1

Zosuquidar + Pictilisib = compound: O[C@@H](COc1cccc2ncccc12)CN1CCN([C@@H]2c3ccccc3[C@@H]3[C@H](c4ccccc42)C3(F)F)CC1 [Zosuquidar] + CS(=O)(=O)N1CCN(Cc2cc3nc(-c4cccc5[nH]ncc45)nc(N4CCOCC4)c3s2)CC1 [Pictilisib] (partner 1 µM)
In short: as §1

## UMC-11
Zosuquidar + Pemetrexed; first compound 0.01 µM
  relative viability: 0.739
Zosuquidar + Pemetrexed; first compound 0.03162 µM
  relative viability: 0.739
Zosuquidar + Pemetrexed; first compound 0.1 µM
  relative viability: 0.894
Zosuquidar + Pemetrexed; first compound 0.3162 µM
  relative viability: 0.858
Zosuquidar + Pemetrexed; first compound 1 µM
  relative viability: 0.86
Zosuquidar + Luminespib; first compound 0.01 µM
  relative viability: 0.97
Zosuquidar + Luminespib; first compound 0.03162 µM
  relative viability: 0.943
Zosuquidar + Luminespib; first compound 0.1 µM
  relative viability: 1.08
Zosuquidar + Luminespib; first compound 0.3162 µM
  relative viability: 1.1
Zosuquidar + Luminespib; first compound 1 µM
  relative viability: 1.18
Kobe2602 + Crizotinib; first compound 0.2 µM
  relative viability: 0.578
Kobe2602 + Crizotinib; first compound 0.6325 µM
  relative viability: 0.545
Kobe2602 + Crizotinib; first compound 2 µM
  relative viability: 0.672
Kobe2602 + Crizotinib; first compound 6.325 µM
  relative viability: 0.619
Kobe2602 + Crizotinib; first compound 20 µM
  relative viability: 0.639
Zosuquidar + Pictilisib; first compound 0.01 µM
  relative viability: 0.663
Zosuquidar + Pictilisib; first compound 0.03162 µM
  relative viability: 0.92
Zosuquidar + Pictilisib; first compound 0.1 µM
  relative viability: 0.707
Zosuquidar + Pictilisib; first compound 0.3162 µM
  relative viability: 0.881
Zosuquidar + Pictilisib; first compound 1 µM
  relative viability: 0.777
